Assay results from PubChem BioAssay (NCI).
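Step 1: Grow cells in 96-well plates. Step 2: Expose to compound for 48 hours at 5 concentrations. Step 3: Interpolate endpoints linearly; if unreached, use highest concentration. TGI is the concentration that stops growth completely.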

Key:
Test in all cases: NCI tumour cell line growth inhibition, 48 h
786-0 renal = tested on: 786-0 renal
A549 NSCLC = tested on: A549 NSCLC
ACHN renal = tested on: ACHN renal
BT-549 breast = tested on: BT-549 breast
CAKI-1 renal = tested on: CAKI-1 renal
CCRF-CEM leukemia = tested on: CCRF-CEM leukemia
COLO 205 colon = tested on: COLO 205 colon
DLD-1 colon = tested on: DLD-1 colon
DMS 114 small cell lung = tested on: DMS 114 small cell lung
DMS 273 small cell lung = tested on: DMS 273 small cell lung
DU-145 prostate = tested on: DU-145 prostate
EKVX NSCLC = tested on: EKVX NSCLC
HCC-2998 colon = tested on: HCC-2998 colon
HCT-116 colon = tested on: HCT-116 colon
HCT-15 colon = tested on: HCT-15 colon
HL-60(TB) leukemia = tested on: HL-60(TB) leukemia
HOP-18 NSCLC = tested on: HOP-18 NSCLC
HOP-62 NSCLC = tested on: HOP-62 NSCLC
HOP-92 NSCLC = tested on: HOP-92 NSCLC
HS 578T breast = tested on: HS 578T breast
HT29 colon = tested on: HT29 colon
IGROV1 ovarian = tested on: IGROV1 ovarian
K-562 leukemia = tested on: K-562 leukemia
KM12 colon = tested on: KM12 colon
LOX IMVI melanoma = tested on: LOX IMVI melanoma
LXFL 529 NSCLC = tested on: LXFL 529 NSCLC
M14 melanoma = tested on: M14 melanoma
M19-MEL melanoma = tested on: M19-MEL melanoma
MALME-3M melanoma = tested on: MALME-3M melanoma
MCF7 breast = tested on: MCF7 breast
MDA-MB-231 breast = tested on: MDA-MB-231 breast
MDA-MB-435 = tested on: MDA-MB-435
MDA-N = tested on: MDA-N
MOLT-4 leukemia = tested on: MOLT-4 leukemia
NCI-H226 lung = tested on: NCI-H226 lung
NCI-H23 lung = tested on: NCI-H23 lung
NCI-H460 lung = tested on: NCI-H460 lung
NCI-H522 lung = tested on: NCI-H522 lung
NCI/ADR-RES ovarian = tested on: NCI/ADR-RES ovarian
OVCAR-3 ovarian = tested on: OVCAR-3 ovarian
OVCAR-4 ovarian = tested on: OVCAR-4 ovarian
OVCAR-5 ovarian = tested on: OVCAR-5 ovarian
OVCAR-8 ovarian = tested on: OVCAR-8 ovarian
PC-3 prostate = tested on: PC-3 prostate
RPMI-8226 leukemia = tested on: RPMI-8226 leukemia
RXF 393 renal = tested on: RXF 393 renal
SF-268 CNS = tested on: SF-268 CNS
SF-295 CNS = tested on: SF-295 CNS
SF-539 CNS = tested on: SF-539 CNS
SK-MEL-2 melanoma = tested on: SK-MEL-2 melanoma
SK-MEL-28 melanoma = tested on: SK-MEL-28 melanoma
SK-MEL-5 melanoma = tested on: SK-MEL-5 melanoma
SK-OV-3 ovarian = tested on: SK-OV-3 ovarian
SN12C renal = tested on: SN12C renal
SNB-19 CNS = tested on: SNB-19 CNS
SNB-75 CNS = tested on: SNB-75 CNS
SNB-78 CNS = tested on: SNB-78 CNS
SR leukemia = tested on: SR leukemia
SW-620 colon = tested on: SW-620 colon
T-47D breast = tested on: T-47D breast
TK-10 renal = tested on: TK-10 renal
U251 CNS = tested on: U251 CNS
UACC-257 melanoma = tested on: UACC-257 melanoma
UACC-62 melanoma = tested on: UACC-62 melanoma
UO-31 renal = tested on: UO-31 renal
A498 renal = tested on: A498 renal
KM20L2 colon = tested on: KM20L2 colon
XF 498 CNS = tested on: XF 498 CNS

Measured: TGI

Cc1ccc(S(=O)(=O)C2=c3ncccc3=C3C(=O)c4ccccc4C(=O)C32)cc1 (stereo not given)
69.7 µM: UACC-62 melanoma
> 100 µM: A549 NSCLC | CAKI-1 renal | CCRF-CEM leukemia | COLO 205 colon | DLD-1 colon | DMS 114 small cell lung | DMS 273 small cell lung | DU-145 prostate | EKVX NSCLC | HCC-2998 colon | HCT-116 colon | HCT-15 colon | HL-60(TB) leukemia | HOP-18 NSCLC | HT29 colon | K-562 leukemia | LOX IMVI melanoma | LXFL 529 NSCLC | M14 melanoma | M19-MEL melanoma | MALME-3M melanoma | MCF7 breast | MDA-MB-231 breast | MDA-MB-435 | MDA-N | MOLT-4 leukemia | NCI-H226 lung | NCI-H23 lung | NCI/ADR-RES ovarian | OVCAR-3 ovarian | OVCAR-8 ovarian | PC-3 prostate | RPMI-8226 leukemia | SF-295 CNS | SK-MEL-2 melanoma | SK-MEL-28 melanoma | SK-OV-3 ovarian | SN12C renal | SNB-75 CNS | SNB-78 CNS | SR leukemia | SW-620 colon | T-47D breast | U251 CNS | UACC-257 melanoma | UO-31 renal
85.3 µM: NCI-H522 lung
> 71.3 µM: TK-10 renal
46.1 µM: SF-539 CNS
> 88.6 µM: BT-549 breast
81.8 µM: HS 578T breast
> 56.9 µM: NCI-H460 lung
> 62.2 µM: IGROV1 ovarian
> 15 µM: SK-MEL-5 melanoma
9.14 µM: HOP-62 NSCLC
79.9 µM: SNB-19 CNS
> 89.5 µM: HOP-92 NSCLC
> 90.3 µM: SF-268 CNS
> 31.6 µM: RXF 393 renal
50.3 µM: 786-0 renal
> 76.6 µM: KM12 colon
> 95.8 µM: ACHN renal
64.4 µM: OVCAR-4 ovarian
> 83.9 µM: OVCAR-5 ovarian

O=C(O)[C@@H]1C[C@@H](O)CN1
> 100 µM: 786-0 renal | A498 renal | A549 NSCLC | ACHN renal | BT-549 breast | CAKI-1 renal | CCRF-CEM leukemia | COLO 205 colon | DU-145 prostate | EKVX NSCLC | HCC-2998 colon | HCT-116 colon | HCT-15 colon | HL-60(TB) leukemia | HOP-62 NSCLC | HOP-92 NSCLC | HS 578T breast | HT29 colon | IGROV1 ovarian | K-562 leukemia | KM12 colon | LOX IMVI melanoma | M14 melanoma | MALME-3M melanoma | MCF7 breast | MDA-MB-231 breast | MDA-MB-435 | MDA-N | MOLT-4 leukemia | NCI-H226 lung | NCI-H23 lung | NCI-H460 lung | NCI/ADR-RES ovarian | OVCAR-3 ovarian | OVCAR-4 ovarian | OVCAR-5 ovarian | OVCAR-8 ovarian | PC-3 prostate | RPMI-8226 leukemia | RXF 393 renal | SF-268 CNS | SF-295 CNS | SF-539 CNS | SK-MEL-2 melanoma | SK-MEL-28 melanoma | SK-MEL-5 melanoma | SK-OV-3 ovarian | SN12C renal | SNB-19 CNS | SNB-75 CNS | SR leukemia | SW-620 colon | T-47D breast | TK-10 renal | U251 CNS | UACC-257 melanoma | UACC-62 melanoma | UO-31 renal

Cc1c2n(c3ccccc13)CC1C2N(C)OC1(C)C (stereo not given)
> 100 µM: 786-0 renal | A549 NSCLC | ACHN renal | CAKI-1 renal | CCRF-CEM leukemia | COLO 205 colon | DLD-1 colon | DMS 114 small cell lung | DMS 273 small cell lung | EKVX NSCLC | HCC-2998 colon | HCT-116 colon | HCT-15 colon | HOP-62 NSCLC | HT29 colon | K-562 leukemia | KM12 colon | KM20L2 colon | M14 melanoma | M19-MEL melanoma | MALME-3M melanoma | MOLT-4 leukemia | NCI-H226 lung | NCI-H23 lung | NCI-H460 lung | NCI-H522 lung | OVCAR-3 ovarian | OVCAR-4 ovarian | OVCAR-5 ovarian | OVCAR-8 ovarian | RPMI-8226 leukemia | SF-268 CNS | SF-295 CNS | SF-539 CNS | SK-MEL-2 melanoma | SK-MEL-28 melanoma | SK-MEL-5 melanoma | SK-OV-3 ovarian | SN12C renal | SNB-19 CNS | SNB-75 CNS | SNB-78 CNS | SR leukemia | UACC-257 melanoma | UACC-62 melanoma | UO-31 renal | XF 498 CNS
